Measurements as given in patent US6864217B2, “Herbicidal compositions with substituted phenylsulfonylureas for controlling weeds in rice” (Hoechst Schering AgrEvo GmbH, priority 1998, dated 2005).

Key:
Type in all cases: in vivo
Echinochloa crusgalli [1] = assay: Table 5 field trial, treatment at the 2-4 leaf stage rice: weed control; settings: evaluation after 28 days
Experimental: (§6) The examples mentioned below were carried out in the greenhouse, and in some instances, in field trials.

Oryza sativa [2] = assay: Table 5 field trial, treatment at the 2-4 leaf stage rice: rice damage; settings: evaluation after 28 days
Experimental: as §6

Sagittaria pygmaea = assay: Table 14 greenhouse trial, treatment at the 3-4 leaf stage: weed control; settings: 21 days after application
Experimental: (§1) Seeds or rhizome pieces of mono- and dicotyledonous weed plants are placed into sandy loam soil in plastic pots, covered with soil and grown in a greenhouse under good growth conditions (temperature, atmospheric humidity, water supply). Weeds which are encountered in the cultivation of rice are cultivated in pots in which the water level is up to 2 cm over the soil surface. Three weeks after sowing, the test plants are treated at the three-leaf stage. The active compound combinations according to the invention, formulated as wettable powders or emulsion concentrates, and, in parallel experiments, the correspondingly formulated individual active compounds are sprayed onto the green parts of the plants at different dosages using an amount of water of 300 to 600 l/ha (converted), and, after about 3 to 4 weeks of the test plants in the greenhouse under optimum growth conditions (temperature, atmospheric humidity, water supply), the effect of the preparations is evaluated visually in comparison to untreated controls. In the case of rice or weeds which are encountered in the cultivation of rice, the active compounds are also added directly to the water for irrigation (application analogous to the so-called granules application) or sprayed onto plants and added to the water for irrigation. The experiments were designed with several, up to five, repetitions. The herbicidal compositions according to the invention also have good herbicidal post-emergence activity against a broad spectrum of economically important weed grasses and broad-leaved weeds.
(§2) Greenhouse trial: Treatment at the 3-4 leaf stage, evaluation 21 days after the application.

Oryza sativa [3] = assay: Table 14 greenhouse trial, treatment at the 3-4 leaf stage: rice damage; settings: 21 days after application
Experimental: as §1, §2

Scirpus maritimus = assay: Table 15 greenhouse trial, treatment at the 2-3 leaf stage: weed control; settings: 20 days after application
Experimental: as §1

Oryza sativa [4] = assay: Table 15 greenhouse trial, treatment at the 2-3 leaf stage: rice damage; settings: 20 days after application
Experimental: as §1

Scirpus juncoides = assay: Table 10 greenhouse trial, treatment at the 1-2 leaf stage: weed control; settings: 20 days after application
Experimental: as §1
(§3) Greenhouse trial: Treatment at the 1-2 leaf stage, evaluation 20 days after the application.

Oryza sativa [5] = assay: Table 10 greenhouse trial, treatment at the 1-2 leaf stage: rice damage; settings: greenhouse trial, 20 days after application
Experimental: as §1, §3

Echinochloa crusgalli [6] = assay: Table 17 field trial, treatment at the 2 leaf stage: weed control; settings: 14 days after application
Excerpt: Field trial: Treatment at the 2 leaf stage, evaluation 14 days after the application.

Cyperus serotinus = assay: Table 16 greenhouse trial, treatment at the 2-3 leaf stage: weed control; settings: 20 days after application
Experimental: as §1
(§4) Greenhouse trail: Treatment at the 2-3 leaf stage, evaluation 20 days after the application.

Oryza sativa [7] = assay: Table 16 greenhouse trial, treatment at the 2-3 leaf stage: rice damage; settings: 20 days after application
Experimental: as §1, §4

Cyperus iria = assay: Table 23 field trial, treatment: 4-6 leaf stage: weed control; settings: 36 days after application
Excerpt: (§5) Field trial: Treatment: 4-6 leaf stage, evaluation 36 days after the application.

Oryza sativa [8] = assay: Table 23 field trial, treatment: 4-6 leaf stage: rice damage; settings: 36 days after application
Excerpt: as §5

Cucumis dipsaceus = assay: Table 1: weed control by A1*), safener C3-1) and combination
Experimental: as §6

[9] = system: Oryza sativa (paddy rice); assay: Table 1: damage to paddy rice
Experimental: as §6

Compound `COP(=S)(OC)SCC(=O)N(c1ccc(Cl)cc1)C(C)C` [B19), S-[2-[(4-chlorophenyl)(1-methylethyl)amino]-2-oxo-ethyl]O,O-dimethylphosphorodithioate] has an ECHCG % control (Echinochloa crusgalli [1]; 250 g of ai/ha) of 30%, an ECHCG % control (Echinochloa crusgalli [1]; 500 g of ai/ha) of 40% and an ORYSW % damage (Oryza sativa [2]; 250 g of ai/ha) of 2%. The ORYSW % damage (Oryza sativa [2]; 500 g of ai/ha) was 10%.

For `CC1=C(c2ccccc2)C(=O)N(C(C)(C)c2cc(Cl)cc(Cl)c2)CO1` [B73), oxaziclomefone], the SAGPY % control (Sagittaria pygmaea; 50 g of ai/ha) was 10%, the SAGPY % control (Sagittaria pygmaea; 100 g of ai/ha) was 15% and the SAGPY % control (Sagittaria pygmaea; 200 g of ai/ha) was 20%. For the same compound, the ORYSW % damage (Oryza sativa [3]; 50 g of ai/ha) was 0%, the ORYSW % damage (Oryza sativa [3]; 100 g of ai/ha) was 0% and the ORYSW % damage (Oryza sativa [3]; 200 g of ai/ha) was 5%.

In the case of `COc1cc(OC)nc(NC(=O)NS(=O)(=O)c2c(-c3nnn(C)n3)cnn2C)n1` [B64), azimsulfuron], the SCIMA % control (Scirpus maritimus; 5 g of ai/ha) is reported as 78%, the SCIMA % control (Scirpus maritimus; 9 g of ai/ha) is reported as 80% and the SCIMA % control (Scirpus maritimus; 18 g of ai/ha) is reported as 83%. It also gave an SCIMA % control (Scirpus maritimus; 37 g of ai/ha) of 85%, an ORYSW % damage (Oryza sativa [4]; 5 g of ai/ha) of 3% and an ORYSW % damage (Oryza sativa [4]; 9 g of ai/ha) of 8%. The ORYSW % damage (Oryza sativa [4]; 18 g of ai/ha) was 10% and the ORYSW % damage (Oryza sativa [4]; 37 g of ai/ha) was 10%.

In the case of `COc1cc(OC)nc(NC(=O)NS(=O)(=O)Cc2ccccc2C(=O)O)n1` [B58), 2-[[[[[(4,6-dimethoxy-2-pyrimidinyl)amino]carbonyl]-amino]sulfonyl]methyl]benzoic acid], the SCIJU % control (Scirpus juncoides; 7.5 g of ai/ha) is reported as 35%, the SCIJU % control (Scirpus juncoides; 15 g of ai/ha) is reported as 40% and the SCIJU % control (Scirpus juncoides; 30 g of ai/ha) is reported as 55%. For the same compound, the SCIJU % control (Scirpus juncoides; 60 g of ai/ha) was 60%, the ORYSW % damage (Oryza sativa [5]; 7.5 g of ai/ha) was 0% and the ORYSW % damage (Oryza sativa [5]; 15 g of ai/ha) was 0%. For the same compound, the ORYSW % damage (Oryza sativa [5]; 30 g of ai/ha) was 2% and the ORYSW % damage (Oryza sativa [5]; 60 g of ai/ha) was 5%.

`C#CCOc1cc(-n2nc(C(C)(C)C)oc2=O)c(Cl)cc1Cl` [B51), 5-tert-butyl-3-[2,4-dichloro-5-(prop-2-ynyloxy)-phenyl]-1,3,4-oxadiazol-2(3H)-one] was tested, and the ECHCG % control (Echinochloa crusgalli [6]; 25 g of ai/ha) was 37%, the ECHCG % control (Echinochloa crusgalli [6]; 50 g of ai/ha) was 63% and the ECHCG % control (Echinochloa crusgalli [6]; 100 g of ai/ha) was 63%. For the same compound, the ECHCG % control (Echinochloa crusgalli [6]; 200 g of ai/ha) was 80%.

`COc1cc(OC)nc(Oc2cccc(Oc3nc(OC)cc(OC)n3)c2C(=O)ON=C(c2ccccc2)c2ccccc2)n1` [B72), pyribenzoxim] was tested, and the CYPSE % control (Cyperus serotinus; 18.75 g of ai/ha) was 25%, the CYPSE % control (Cyperus serotinus; 37.5 g of ai/ha) was 35% and the CYPSE % control (Cyperus serotinus; 75 g of ai/ha) was 60%. For the same compound, the ORYSW % damage (Oryza sativa [7]; 18.75 g of ai/ha) was 3%, the ORYSW % damage (Oryza sativa [7]; 37.5 g of ai/ha) was 8% and the ORYSW % damage (Oryza sativa [7]; 75 g of ai/ha) was 8%.

Compound `COc1cc(OC)nc(NC(=O)NS(=O)(=O)c2c(C(=O)O)cnn2C)n1` [B59), 5-[[[[(4,6-dimethoxy-2-pyrimidinyl)amino]carbonyl]-amino]sulfonyl]-1-methyl-1H-pyrazol-4-carboxylic acid] has an SCIJU % control (Scirpus juncoides; 7.5 g of ai/ha) of 50%, an SCIJU % control (Scirpus juncoides; 15 g of ai/ha) of 55% and an SCIJU % control (Scirpus juncoides; 30 g of ai/ha) of 60%. For the same compound, the ORYSW % damage (Oryza sativa [5]; 7.5 g of ai/ha) was 0%, the ORYSW % damage (Oryza sativa [5]; 15 g of ai/ha) was 0% and the ORYSW % damage (Oryza sativa [5]; 30 g of ai/ha) was 2%.

`CC(C)N1C(=O)c2ccccc2NS1(=O)=O` [B39), 3-isopropyl-1H-2,1,3-benzothiadiazin-4(3H)-one-2,2-dioxide] was tested, and the CYPIR % control (Cyperus iria; 250 g of ai/ha) was 42%, the CYPIR % control (Cyperus iria; 400 g of ai/ha) was 78% and the CYPIR % control (Cyperus iria; 800 g of ai/ha) was 97%. For the same compound, the ORYSW % damage (Oryza sativa [8]; 250 g of ai/ha) was 0%, the ORYSW % damage (Oryza sativa [8]; 400 g of ai/ha) was 0% and the ORYSW % damage (Oryza sativa [8]; 800 g of ai/ha) was 3%.

Compound `CCOC(=O)C1=NOC(c2ccccc2)(c2ccccc2)C1` [C3-1), ethyl 5,5-diphenyl-2-isoxazoline-3-carboxylate] has a CUMDI % control (Cucumis dipsaceus; 15 g of ai/ha) of 0%, a CUMDI % control (Cucumis dipsaceus; 30 g of ai/ha) of 0% and a CUMDI % control (Cucumis dipsaceus; 60 g of ai/ha) of 0%. For the same compound, the ORYSW % damage ([9]; 15 g of ai/ha) was 0%, the ORYSW % damage ([9]; 30 g of ai/ha) was 0% and the ORYSW % damage ([9]; 60 g of ai/ha) was 0%.

Compound `CCCOCCN(C(=O)CCl)c1c(CC)cccc1CC` [B4), 2-chloro-N-(2,6-diethylphenyl)-N-(2-propoxyethyl)acetamide] has an SAGPY % control (Sagittaria pygmaea; 125 g of ai/ha) of 65%, an SAGPY % control (Sagittaria pygmaea; 250 g of ai/ha) of 70% and an SAGPY % control (Sagittaria pygmaea; 500 g of ai/ha) of 75%. The ORYSW % damage (Oryza sativa [3]; 125 g of ai/ha) was 15%, the ORYSW % damage (Oryza sativa [3]; 250 g of ai/ha) was 15% and the ORYSW % damage (Oryza sativa [3]; 500 g of ai/ha) was 35%.

`O=C(O)c1c(Cl)ccc2cc(Cl)cnc12` [B13), 3,7-dichloro-8-quinolincarboxylic acid] showed an SAGPY % control (Sagittaria pygmaea; 250 g of ai/ha) of 30%, an SAGPY % control (Sagittaria pygmaea; 500 g of ai/ha) of 30% and an SAGPY % control (Sagittaria pygmaea; 1000 g of ai/ha) of 30%. For the same compound, the ORYSW % damage (Oryza sativa [3]; 250 g of ai/ha) was 0%, the ORYSW % damage (Oryza sativa [3]; 500 g of ai/ha) was 0% and the ORYSW % damage (Oryza sativa [3]; 1000 g of ai/ha) was 0%.
